Test results as given in ChEMBL document CHEMBL5729289, “JAK inhibitor and use thereof” (2022).

Legend:
[1] = target: Tyrosine-protein kinase JAK1 (Homo sapiens, UniProt P23458); assay: (§1) In Vitro Activity Assay: JAK1 (h) was incubated with 20 mM Tris/HCl pH 7.5, 0.2 mM EDTA, 500 μM […], 10 mM magnesium acetate and [γ-33P]-ATP (activity and concentration were formulated as needed). Mg/ATP mixture was added to initiate the reaction. After incubating at room temperature for 40 minutes, the reaction mixture was added with 0.5% phosphoric acid to stop the reaction. Then 10 μL reaction solution was spotted on a P30 filter pad and washed with 0.425% phosphoric acid three times and methanol once over 4 minutes, dried, and counted scintillation.
[2] = target: Tyrosine-protein kinase JAK2 (Homo sapiens, UniProt O60674); assay: In Vitro Activity Assay: JAK2 (h) and 8 mM MOPS pH 7.0, 0.2 mM EDTA, 100M KTFCGTPEYLAPEVRREPRILSEEEQEMFRDFDYIADWC, 10 mM magnesium acetate and [γ-33P]-ATP (activity and concentration were formulated as needed) were incubated together. Mg/ATP mixture was added to initiate the reaction. After incubating at room temperature for 40 minutes, the reaction mixture was added with 0.5% phosphoric acid to …
[3] = target: T1, Tyrosine-protein kinase JAK3 (Homo sapiens, UniProt P52333); assay: as §1, with “JAK3” for “JAK1”, “8” for “20”, “MOPS” for “Tris/HCl”, “7.0,” for “7.5,”, “μL the” for “μL”, “scintillation” for “scintillation.”
T1 sequence (P52333 whole entry): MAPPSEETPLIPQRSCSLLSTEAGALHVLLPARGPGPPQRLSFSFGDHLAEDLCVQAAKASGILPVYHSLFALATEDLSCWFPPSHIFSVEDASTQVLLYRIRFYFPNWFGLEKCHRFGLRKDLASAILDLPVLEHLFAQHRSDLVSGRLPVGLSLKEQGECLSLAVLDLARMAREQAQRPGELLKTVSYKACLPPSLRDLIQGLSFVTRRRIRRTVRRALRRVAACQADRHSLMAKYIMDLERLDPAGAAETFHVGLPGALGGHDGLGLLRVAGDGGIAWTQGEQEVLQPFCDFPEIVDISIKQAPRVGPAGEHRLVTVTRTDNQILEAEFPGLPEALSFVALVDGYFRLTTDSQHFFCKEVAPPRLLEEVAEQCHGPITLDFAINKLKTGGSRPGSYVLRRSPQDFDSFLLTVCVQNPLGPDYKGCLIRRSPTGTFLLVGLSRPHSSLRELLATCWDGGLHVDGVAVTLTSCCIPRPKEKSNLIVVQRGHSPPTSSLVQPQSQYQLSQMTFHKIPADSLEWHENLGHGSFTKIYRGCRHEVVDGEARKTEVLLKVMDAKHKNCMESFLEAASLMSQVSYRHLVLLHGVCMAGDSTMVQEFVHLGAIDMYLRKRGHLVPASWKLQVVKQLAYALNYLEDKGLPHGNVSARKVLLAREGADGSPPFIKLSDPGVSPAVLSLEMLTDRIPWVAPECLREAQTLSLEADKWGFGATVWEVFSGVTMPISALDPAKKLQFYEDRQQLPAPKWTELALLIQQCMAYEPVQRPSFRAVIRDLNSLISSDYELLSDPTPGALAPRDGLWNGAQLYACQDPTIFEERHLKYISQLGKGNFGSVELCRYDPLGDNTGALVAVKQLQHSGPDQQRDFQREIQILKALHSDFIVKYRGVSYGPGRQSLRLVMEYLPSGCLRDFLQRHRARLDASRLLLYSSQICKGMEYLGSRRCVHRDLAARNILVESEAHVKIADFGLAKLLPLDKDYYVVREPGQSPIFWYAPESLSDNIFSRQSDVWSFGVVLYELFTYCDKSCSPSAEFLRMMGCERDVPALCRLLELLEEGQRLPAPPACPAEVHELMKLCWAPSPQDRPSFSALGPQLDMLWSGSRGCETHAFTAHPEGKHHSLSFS

[4] = target: Non-receptor tyrosine-protein kinase TYK2 (Homo sapiens, UniProt P29597); assay: as §1, with “TYK2” for “JAK1”, “8” for “20”, “MOPS” for “Tris/HCl”, “7.0,” for “7.5,”, “250” for “500”, “reaction” for “reaction solution”
Non-receptor tyrosine-protein kinase TYK2, sequence (P29597 whole entry): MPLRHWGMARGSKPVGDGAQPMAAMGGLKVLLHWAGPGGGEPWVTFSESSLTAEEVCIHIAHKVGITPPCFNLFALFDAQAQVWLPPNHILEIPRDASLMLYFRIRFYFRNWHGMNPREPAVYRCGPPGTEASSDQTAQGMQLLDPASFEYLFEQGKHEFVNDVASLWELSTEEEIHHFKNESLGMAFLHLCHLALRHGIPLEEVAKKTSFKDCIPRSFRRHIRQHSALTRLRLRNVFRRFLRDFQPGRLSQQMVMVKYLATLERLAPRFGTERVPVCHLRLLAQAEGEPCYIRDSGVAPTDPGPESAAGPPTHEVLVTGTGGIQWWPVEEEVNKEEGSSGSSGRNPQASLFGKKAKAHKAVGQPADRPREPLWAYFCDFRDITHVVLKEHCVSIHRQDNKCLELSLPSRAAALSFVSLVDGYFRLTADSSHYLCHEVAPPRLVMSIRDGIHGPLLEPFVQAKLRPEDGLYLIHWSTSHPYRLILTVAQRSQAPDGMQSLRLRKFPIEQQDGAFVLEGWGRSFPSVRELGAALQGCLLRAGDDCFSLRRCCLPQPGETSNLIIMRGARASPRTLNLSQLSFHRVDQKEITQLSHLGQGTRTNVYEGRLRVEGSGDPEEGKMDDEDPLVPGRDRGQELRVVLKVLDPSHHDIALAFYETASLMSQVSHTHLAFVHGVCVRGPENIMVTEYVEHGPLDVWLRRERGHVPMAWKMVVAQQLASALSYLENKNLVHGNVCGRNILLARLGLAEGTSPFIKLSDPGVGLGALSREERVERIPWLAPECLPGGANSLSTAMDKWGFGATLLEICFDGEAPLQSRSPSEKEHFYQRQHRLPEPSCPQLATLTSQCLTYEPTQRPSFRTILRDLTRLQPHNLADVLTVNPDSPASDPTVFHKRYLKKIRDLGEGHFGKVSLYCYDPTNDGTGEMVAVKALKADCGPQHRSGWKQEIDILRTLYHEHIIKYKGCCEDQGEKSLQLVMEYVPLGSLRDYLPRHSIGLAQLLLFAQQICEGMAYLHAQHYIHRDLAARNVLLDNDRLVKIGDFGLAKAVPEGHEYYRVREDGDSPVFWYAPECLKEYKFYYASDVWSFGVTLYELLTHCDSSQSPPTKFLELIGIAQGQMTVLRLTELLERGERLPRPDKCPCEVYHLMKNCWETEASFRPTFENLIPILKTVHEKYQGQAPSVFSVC

Tyrosine-protein kinase JAK1, sequence (P23458 whole entry): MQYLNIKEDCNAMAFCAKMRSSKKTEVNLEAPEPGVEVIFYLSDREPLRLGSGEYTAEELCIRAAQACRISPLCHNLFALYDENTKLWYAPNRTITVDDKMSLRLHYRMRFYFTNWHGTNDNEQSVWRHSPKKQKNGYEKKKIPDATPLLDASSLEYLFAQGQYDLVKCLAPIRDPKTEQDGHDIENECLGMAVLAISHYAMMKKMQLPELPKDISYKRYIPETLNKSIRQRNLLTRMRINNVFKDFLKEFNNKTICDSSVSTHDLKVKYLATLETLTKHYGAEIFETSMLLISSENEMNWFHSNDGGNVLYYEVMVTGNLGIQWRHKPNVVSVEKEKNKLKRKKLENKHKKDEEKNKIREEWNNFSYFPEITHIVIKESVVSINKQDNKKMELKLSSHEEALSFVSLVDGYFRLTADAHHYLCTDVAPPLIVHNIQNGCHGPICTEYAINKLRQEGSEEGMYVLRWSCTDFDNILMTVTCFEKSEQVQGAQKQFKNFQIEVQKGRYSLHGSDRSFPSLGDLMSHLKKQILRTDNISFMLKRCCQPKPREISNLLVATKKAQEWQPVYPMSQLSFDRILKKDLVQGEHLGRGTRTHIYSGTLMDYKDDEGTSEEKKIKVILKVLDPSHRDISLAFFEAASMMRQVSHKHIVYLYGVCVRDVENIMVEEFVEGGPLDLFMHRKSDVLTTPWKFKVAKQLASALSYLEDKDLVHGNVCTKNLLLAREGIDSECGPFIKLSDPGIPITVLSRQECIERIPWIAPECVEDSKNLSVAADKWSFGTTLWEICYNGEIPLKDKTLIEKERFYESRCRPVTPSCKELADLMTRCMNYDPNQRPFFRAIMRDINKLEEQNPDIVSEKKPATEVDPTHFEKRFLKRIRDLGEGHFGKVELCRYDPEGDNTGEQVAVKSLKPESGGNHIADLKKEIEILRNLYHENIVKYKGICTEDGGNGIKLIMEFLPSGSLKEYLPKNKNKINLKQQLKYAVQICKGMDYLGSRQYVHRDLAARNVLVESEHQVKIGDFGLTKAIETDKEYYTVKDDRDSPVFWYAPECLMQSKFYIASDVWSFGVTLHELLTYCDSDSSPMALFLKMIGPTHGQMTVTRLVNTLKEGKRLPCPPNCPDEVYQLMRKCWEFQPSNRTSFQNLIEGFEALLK
Tyrosine-protein kinase JAK2, sequence (O60674 whole entry): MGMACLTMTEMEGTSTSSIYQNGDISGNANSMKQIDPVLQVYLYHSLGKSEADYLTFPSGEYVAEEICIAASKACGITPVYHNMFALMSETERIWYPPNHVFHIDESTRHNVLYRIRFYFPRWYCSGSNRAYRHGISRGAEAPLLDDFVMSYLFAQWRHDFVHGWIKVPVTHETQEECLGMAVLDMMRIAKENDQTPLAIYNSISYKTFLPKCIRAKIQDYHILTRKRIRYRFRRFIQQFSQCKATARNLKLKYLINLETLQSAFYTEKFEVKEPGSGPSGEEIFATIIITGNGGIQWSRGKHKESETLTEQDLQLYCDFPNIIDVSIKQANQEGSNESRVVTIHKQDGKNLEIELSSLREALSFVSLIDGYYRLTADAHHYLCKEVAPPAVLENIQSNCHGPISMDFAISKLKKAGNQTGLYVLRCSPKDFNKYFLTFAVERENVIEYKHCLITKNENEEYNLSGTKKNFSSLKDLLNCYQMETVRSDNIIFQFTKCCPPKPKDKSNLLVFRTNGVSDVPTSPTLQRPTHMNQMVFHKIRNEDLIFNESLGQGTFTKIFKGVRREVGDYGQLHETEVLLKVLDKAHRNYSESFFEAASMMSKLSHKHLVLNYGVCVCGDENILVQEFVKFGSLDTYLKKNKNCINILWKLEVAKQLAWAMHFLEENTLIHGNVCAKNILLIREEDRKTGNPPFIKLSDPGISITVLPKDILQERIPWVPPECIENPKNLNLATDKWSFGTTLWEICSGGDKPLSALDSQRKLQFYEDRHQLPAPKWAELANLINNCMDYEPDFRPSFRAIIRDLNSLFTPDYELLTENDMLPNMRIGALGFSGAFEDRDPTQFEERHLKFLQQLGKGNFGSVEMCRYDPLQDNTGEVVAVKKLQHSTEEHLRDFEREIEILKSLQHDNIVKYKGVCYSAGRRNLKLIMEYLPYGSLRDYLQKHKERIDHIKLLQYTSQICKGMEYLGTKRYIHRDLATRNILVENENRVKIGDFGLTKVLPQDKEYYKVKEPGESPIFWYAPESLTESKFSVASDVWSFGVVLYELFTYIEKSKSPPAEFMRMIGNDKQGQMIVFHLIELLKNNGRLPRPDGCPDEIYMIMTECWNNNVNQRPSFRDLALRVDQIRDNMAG

| SMILES | IC50 [1] | IC50 [2] | IC50 [3] | IC50 [4] |
| --- | --- | --- | --- | --- |
| N#CC1(C(=O)NC2CC=C(c3cccc4nc(NC(=O)C5CC5)nn34)CC2)CC1 (configuration not stated) | 182 nM | 1380 nM | > 10000 nM |  |
| CC1(C(=O)NC2CC=C(c3cccc4nc(NC(=O)C5CC5)nn34)CC2)CC1(F)F (configuration not stated) | 209 nM | 1160 nM | > 10000 nM | 729 nM |
